Experimental data: patent US20220089602A1, “COMPOUNDS THAT INDUCE FERROPTIC CELL DEATH” (The Board of Trustees of the University of Illinois, priority 2019, published 2022)

Key:
ES-2 cells [1] = test: Cellular ROS production (carboxy-H2DCFDA); assay type: cell-based; settings: 1 hr
Procedure: (§1) ES-2 and HCT 116 cells (3×10^5 cells/mL) were plated in 6-well plates. Cells were treated with DMSO, ferroptocide at the indicated concentrations, Etoposide (100 μM), TBHP (100 μM) for 1 hr and 1.5 hr respectively. Cells were washed with HBSS and incubated in the dark for 25 min with 25 μM carboxy-H2DCFDA probe. Cells were then washed 3× with HBSS and harvested at 1000×g, 3 min. After resuspension in 500 μl HBSS buffer, samples were subjected to flow cytometry to record ten thousand events per sample in FL1 channel in BD LSR II Flow Cytometer (BD Bioscience). FCS express V6 De Novo software was used to generate the histograms.

HCT 116 cells [2] = test: Cellular ROS production (carboxy-H2DCFDA); assay type: cell-based; settings: 1.5 hr
Procedure: as §1

[3] = molecular target: T1, purified human thioredoxin (Homo sapiens, UniProt P10599); test: Thioredoxin activity assay, biochemical (in vitro); settings: 30 min, versus PMX464 and PX-12
T1 construct: purchased Cayman Chemical Fluorescent Thioredoxin Activity Assay kit #20039
T1 sequence (P10599 whole entry): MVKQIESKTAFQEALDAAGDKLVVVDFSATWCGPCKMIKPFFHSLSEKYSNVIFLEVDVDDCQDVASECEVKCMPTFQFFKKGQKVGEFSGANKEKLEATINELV
Procedure: HCT 116 cells (1×10^6 cells/flask) were treated with DMSO, 10 μM ferroptocide, 50 μM PMX464, or 50 μM PX-12 for 30 min. Cells were harvested by centrifugation, resuspended in the assay buffer and lysed via sonication. For each condition, 20 μg of cell lysate was used to measure the activity thioredoxin activity following manufacturer' protocol (Cayman Chemical, Fluorescent Thioredoxin Activity Assay kit #20039) in a 96-well black-walled plate. For in vitro studies, human thioredoxin (10 μL of 0.2 μM solution) was used in addition to thioredoxin reductase (10 μL of 1.0 μM solution), 1 μl of DMSO, ferroptocide, […], or PX-12 at indicated concentrations, 5 μL of NADPH (diluted according to manufacturer's instructions), and assay buffer to a final volume of 75 μL. The plate was incubated at 37° C. for 30 min followed by immediate addition of 20 μL fluorescent substrate per each well (diluted as instructed in the assay kit). Fluorescence was monitored over 1 hr at 520 nm after excitation at 480 nm in a SpectraMax M3 (Molecular Devices) instrument at 37° C.

Mia PaCa-2 cells = test: Speed of cell death, AV/PI flow cytometry; assay type: cell-based; settings: 10 μM, Mia PaCa-2, AV/PI
Procedure: (§2) ES-2, HCT 116, Mia PaCa-2, A549, and 4T1 cells (1×10^5 cells/mL) were plated overnight in 12 well plates, prior to addition of compounds. For protection studies, samples were pre-treated with each protecting agent such as 25 μM Q-VD-OPh, 250 μM trolox, 2 μM ferrostatin-1, 5 mM NAC-1 (neutralized pH), or 100 μM deferoxamine (DFO) for two hours or 1 hr (NAC-1) before compound addition. Cells were incubated for the appropriate times and harvested for flow cytometry analysis. Cell pellets were resuspended in binding buffer (10 mM HEPES, pH 7.4, 140 mM NaCl, 2.5 mM CaCl2) containing 2 μg/mL propidium iodide and 5 μL/mL Annexin V-FITC conjugate antibody and analyzed for cell viability after gating for forward and side scattering. Ten thousand events were collected per sample in BD LSR II Flow Cytometer (BD Bioscience) and FCS express V6, De Novo software was used to perform experimental analysis.

A549 cells = test: Speed of cell death, AV/PI flow cytometry; assay type: cell-based; settings: each at 10 μM, A549 (K-RAS mutant)
Procedure: as §2

ES-2 cells [4] = test: Speed of cell death, AV/PI flow cytometry; assay type: cell-based; settings: 10 μM, ES-2, AV/PI
Procedure: as §2

HCT 116 cells [5] = test: Speed of cell death, AV/PI flow cytometry; assay type: cell-based
Procedure: as §2

[6] = system: 4T1 triple negative breast cancer cells; test: 4T1 syngeneic subcutaneous tumor model, immunocompetent mice; assay type: in vivo; settings: 50 mg/kg i.p., twice a week, five doses, Balb/c
Procedure: The protocol was approved by the IACUC at the University of Illinois at Urbana-Champaign (Protocol Number: 17192). 9-week old female Balb/C or SCID mice (Charles River) were lightly sedated with i.p. xylazine/ketamine/saline solution. Following sedation, 4T1 murine breast cancer cells suspended in chilled HBSS (100 μL of 4×10^6 cells/mL) were injected subcutaneously into the right flank of shaved and sedated mice using an insulin syringe. On day 8 after inoculation, mice were randomized with 7 mice per group for vehicle or ferroptocide treatment. Vehicle (PEG400) or ferroptocide (50 mg/kg) was administered intraperitoneally as a PEG400 solution twice a week for 5 times. Tumor measurements were performed every 3 or 4 days using a caliper and tumor volume was calculated using the equation (0.5×l×w^2). On day 23 after the 4T1 cells inoculation, mice were sacrificed. Tumors were then surgically removed, and their mass was measured.

E. coli = test: Antibacterial activity (MIC); assay type: cell-based; settings: Escherichia coli; gram-negative (E. coli)
S. aureus = test: Antibacterial activity (MIC); assay type: cell-based; settings: Staphylococcus aureus; gram positive (S. aureus)

Compound: C[C@@H]1CC[C@@]23C[C@H](O)C(=O)[C@@]2(O)[C@]1(C)[C@H](OC(=O)CCl)C[C@@H](C1=CCn2c(=O)n(-c4ccccc4)c(=O)n2C1)[C@@H]3C [Compound P18, ferroptocide]
- ROS production (ES-2 cells [1]): Dose-dependent ROS production
- ROS production (HCT 116 cells [2]): Dose-dependent ROS production
- inhibition of purified thioredoxin, dose-response [3]: more potent thioredoxin inhibitor than PMX464 and PX-12
- time to 50% cell death (Mia PaCa-2 cells; listed as Ferroptocide): 2 h
- time to 50% cell death (Mia PaCa-2 cells; listed as ferroptocide): 1.5 h
- cell death versus erastin and RSL3 (A549 cells): inducing more quantitative cell death than the other tool compounds
- time to 50% cell death (ES-2 cells [4]): 1 h
- time to 50% cell death (HCT 116 cells [5]; 10 μM, HCT 116, AV/PI): 7 h
- cell death versus erastin and RSL3 (HCT 116 cells [5]; each at 10 μM, HCT 116 (K-RAS mutant)): inducing more quantitative cell death than the other tool compounds
- effect on subcutaneous 4T1 tumor growth (in words) [6]: inhibits subcutaneous 4T1 tumor growth
- tumor growth retardation (tumor volume) ([6]; compared to vehicle): 40%
- MIC (E. coli): > 64 µg/mL
- MIC (S. aureus): > 64 µg/mL
